How the values were obtained:
[1] = biological target: T1, OX2R (Homo sapiens, UniProt O43614); conditions: OX2R-expressed recombinant cells; cited from earlier work
T1 sequence (O43614 1-444): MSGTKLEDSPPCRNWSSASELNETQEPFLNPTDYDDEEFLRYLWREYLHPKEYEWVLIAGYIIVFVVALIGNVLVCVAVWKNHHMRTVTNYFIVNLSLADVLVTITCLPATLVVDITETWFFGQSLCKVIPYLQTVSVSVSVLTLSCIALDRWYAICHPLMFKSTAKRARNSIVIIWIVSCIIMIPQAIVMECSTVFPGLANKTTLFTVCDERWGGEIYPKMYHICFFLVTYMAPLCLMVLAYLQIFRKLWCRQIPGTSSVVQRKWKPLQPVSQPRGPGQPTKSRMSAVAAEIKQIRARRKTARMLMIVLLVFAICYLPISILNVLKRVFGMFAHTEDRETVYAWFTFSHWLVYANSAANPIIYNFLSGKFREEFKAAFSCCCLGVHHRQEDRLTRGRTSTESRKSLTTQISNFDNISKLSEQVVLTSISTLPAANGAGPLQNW

[2] = biological target: T1, OX2R; conditions: OX2R-expressed recombinant cells; cited from earlier work; remark: listed apart in the source
[3] = test system: neurons in the pre-Bötzinger complex; assay: Electrophysiologic recording of neurons in the pre-Bötzinger complex in rat medullary slices; assay type: cell-based; conditions: whole cell patch clamp, versus vehicle (0.1% DMSO) control, FIG. 1
From the text: (§1) Neonatal rats (postnatal day 1-10) were decapitated and the neuraxis was isolated in a chamber filled with oxygenated artificial cerebrospinal fluid solution (ACSF, in mM: NaCl 125, KCl 2.5, MgCl2 1, CaCl2 2, NaHCO3 25, NaH2PO4 1.25, glucose 25, pH 7.4). The cerebellum was removed, and the brainstem was mounted in the vibratome (VT 1000S; Leica, Milan, Italy) chamber filled with oxygenated gluconate cutting solution (in mM: Kgluconate 130, KCl 15, EGTA 0.2, HEPES 20, glucose 25, kynurenic acid 2, pH 7.4). Transverse medullary slices containing the pre-Bötzinger complex and hypoglossal nucleus were cut (400-600 μm thick). The slices were transferred at room temperature for 1 min in an oxygenated mannitol cutting solution (in mM: D-mannitol 225, glucose 25, KCl 2.5, NaH2PO4 1.25, NaHCO3 26, CaCl2 0.8, MgCl2 8, kynurenic acid 2, pH 7.4). Slices were then transferred in ACSF solution at 30° C. for 30 min and at room temperature for 30 min. At least 30 min prior to the start of recording, each slice was transferred in the recording solution in which the concentration of K+ was raised to 9 mM and that of Mg2+ was decreased to 0.5 mM to ensure the production of long-term and stable rhythm. […] Signals were acquired using Clampex 10.6 software (Axon, Molecular Devices, CA, USA) at a sampling rate of 10-20 kHz and filtered at 2-10 kHz using an 8-pole Bessel filter built within the software and analyzed using Clampfit 10.6 software (pClamp 10.6; Axon, Molecular Devices). […] Bursts were then automatically detected, and burst frequency was measured.
(§2) To evaluate the effects of vehicle (0.1% DMSO) on neuronal activities, after 5 min of stabilization, the neuronal activities under basal condition was recorded for 2-12 min, followed by recording in the presence of vehicle (0.1% DMSO) for 30 min. […]

[4] = test system: phrenic motoneurons; assay: Electrophysiologic recording of phrenic motoneurons in rat isolated brainstem-spinal cord preparations; assay type: cell-based; conditions: C3-5 ventral root, versus vehicle control, FIG. 2
Experimental: Neonatal (postnatal day 1-4) rats were decapitated, and the brainstem-spinal cord was dissected in a bath containing ACSF. The cerebellum and pons were ablated. At least 30 min prior to the start of recording, the tissue was transferred in the recording solution in which the concentration of K+ was raised to 5 mM and that of Mg2+ was decreased to 0.5 mM to ensure production of long-term and stable rhythm (modified ACSF, in mM: NaCl 125, MgCl2 0.5, KCl 5, CaCl2 1, NaHCO3 25, NaH2PO4 1.25, glucose 30, pH 7.4). The tissues were glued on coverslips and transferred to a recording chamber and continuously perfused at 27±2° C. with mACSF at a flow rate of 2.3±0.2 mL/min. Activity of phrenic motoneurons was measured in electrophysiological recordings from C3-5 ventral root, outputs of phrenic motoneurons (J. J. Greer, J. C. Smith, J. L. Feldman, Respiratory and locomotor patterns generated in the fetal rat brain stem-spinal cord in vitro, J Neurophysiol 67 (4) (1992) 996-9; J. C. Smith, J. J. Greer, G. S. Liu, J. L. Feldman, Neural mechanisms generating respiratory pattern in mammalian brain stem-spinal cord in vitro. I. Spatiotemporal patterns of motor and medullary neuron activity, J Neurophysiol 64 (4) (1990) 1149-69), using a glass suction electrode. […] The rectification and integration was used for quantification of the activities of phrenic motoneurons because the spontaneous bursts detected in voltage signals are consisting of multiple positive and negative voltages from baseline (T. Sugita, et al.). […] Bursts were then automatically detected, and burst frequency was measured.
To evaluate the effects of vehicle (0.1% DMSO) on neuronal activities, after 5 min of stabilization, the neuronal activities under basal condition were recorded for 2-20 min, followed by recording with vehicle (0.1% DMSO) for 30-40 min. […] As vehicle (0.1% DMSO) had no significant effects on burst frequency of phrenic neurons, potential of drugs was assessed under vehicle (0.1% DMSO). […]

[5] = test system: hypoglossal motoneurons; assay: Electrophysiologic recording of hypoglossal motoneurons in rat medullary slices; assay type: cell-based; conditions: whole cell patch clamp, versus vehicle control, FIG. 3
From the text: as §1, §2

Compound | calcium mobilization [1] | recruitment of β-arrestins [2] | burst frequency in neurons in the pre-Bötzinger complex [3] | burst frequency of phrenic motoneurons [4] | burst frequency of hypoglossal motoneurons [5]
Orexin-B: Orexin-B (OX-B) peptide | increase calcium mobilization | promote recruitment of β-arrestins |  |  | 
CC(C)(O)C(=O)N1CC[C@H](NS(C)(=O)=O)[C@@H]1Cc1cccc(-c2cc(F)cc(F)c2)c1F [Compound B, N-((2S,3S)-1-(2-hydroxy-2-methylpropanoyl)-2-((2,3′,5′-trifluorobiphenyl-3-yl)methyl)pyrrolidin-3-yl) methanesulfonamide] |  |  | increased burst frequency | increased burst frequency | increased burst frequency
COc1ccc(-c2cccc(C(=O)N(C)C)c2)cc1S(=O)(=O)Nc1cccc(NCCNC(=O)c2ccccc2N(C)C)c1 [YNT-185] | increase calcium mobilization | promote recruitment of β-arrestins |  |  | 

From US20260256753A1, “USE OF AN OREXIN 2 RECEPTOR AGONIST FOR IMPROVING RESPIRATORY FUNCTION DURING SLEEP” (TAKEDA PHARMACEUTICAL COMPANY LIMITED, priority 2023, published 2026)
